# Results taken from patent publication US10556936B2, “Immunogenic proteins and fragments thereof from allergenic mites” (ALK-ABELLÓ A/S, priority 2016, dated 2020).
# Tested on: HDM-specific T cells expanded from PBMCs of HDM-allergic individuals
# Assay: T cell reactivity of peptides: IFN/IL-5 ELISPOT on in vitro expanded HDM-specific T cells
# Type: cell-based, human
# Conditions: for SFC/donor: individual peptides 10 μg/mL; for % responder: percentage of donors that produced a response against the peptide, 10 μg/mL
# Description: Each sequence of an “L” cluster was aligned separately using the MEGA software tool with ClustalW. Fifteen-mer peptides overlapping by 10 amino acids were generated and the last 15-mer peptide was added when the sequence length was not divisible by 5, 14,783 unique peptides remained.
# HLA class II binding predictions optimized for global coverage were performed for the seven class II alleles (HLA-DRB1*03:01, HLA-DRB1*07:01, HLA-DRB1*15:01, HLA-DRB3*01:01, HLA-DRB3*02:02, HLA-DRB4*01:01 and HLA-DRB5*01:01) using the standalone version of the IEDB class II binding prediction tool. The median consensus percentile rank was estimated from the consensus percentile ranks for the seven alleles. Further, peptides with more than ten overlapping amino acids, which appeared because several occurrences of some sequence regions were repeated multiple times in the same sequence, were eliminated (e.g. “[…]” was repeated seven times in one sequence.) Variant peptides were also removed, retaining the better peptide based on the median consensus percentile rank and conservation among the sequences within its respective cluster. Peptides with median consensus percentile rank ≤10.0 and conserved in ≥35% of sequences in the same cluster were finally selected, also including additional selected peptides chosen to maximize DRB1 allele coverage, for a grand total of 2,589 peptides.
# Peptides were purchased from Mimotopes (Clayton, Victoria, Australia) or A and A (San Diego, Calif.) as crude material on a small (1-mg) scale. Individual peptides were resuspended in DMSO at a final concentration of 40 mg/mL. Peptide “megapools” of 30-65 peptides/pool were generated. Following lyophilization, each pool was reconstituted in DMSO so that each peptide was present at a concentration of 4 mg/mL. To facilitate deconvolution of positive megapools, each megapool was further broken down in 2-6 “mesopools” (259 mesopools in total), each containing 8-14 peptides. Each mesopool was then deconvoluted to identify individual positive peptides. To avoid dimerization and polymerization of peptides by intra- and intermolecular disulfide bond formation between cysteine residues, this amino acid were in some instances substituted by a serine residue in the peptides. Such peptides are herein marked with an asterisk (*).
# PBMCs from European HDM-allergic individuals were recruited in the Copenhagen region (defined by clinical history of allergy to house dust mite and specific IgE to group 1 and group 2 major allergens from Der p and/or Der f and with measured specific IgE (CAP) >0.7 kU/L towards Der p/f 1 or Der p/f 2. In addition, PBMCs from 10 US HDM-allergic individuals were recruited in San Diego (defined by Der p extract IgE titers greater than 0.35 kUA/L). PBMCs were isolated from whole blood by density gradient centrifugation according to manufacturers' instructions (Ficoll-Hypaque, Amersham Biosciences, Uppsala, Sweden). Der p- and Der f-specific extract IgE titers were determined using the ImmunoCAP system (Thermo Fisher, Uppsala, Sweden). In a separate series of experiments, pooled plasma from 10 European and 10 American HDM atopic individuals from the San Diego region, respectively, was utilized to run 2D immunoblots to elucidate IgE and IgG reactivity towards the proteins, which had at least one peptide with positive T cell response.
# HDM-specific T cells were expanded in vitro. Briefly, PBMCs from HDM-allergic individuals were stimulated with HDM extract (5 μg/mL) and expanded over 14-17 days with IL-2 (added every 3 days). Cells were harvested on day 14, restimulated with HDM extract (5 μg/mL), individual peptides (10 μg/mL) or peptide pools (5 μg/mL) and screened for […]/IL-5-production by ELISPOT. Criteria for positivity were 100 or 20 spot forming cells (SFCs) per 10^6 PBMCs for peptide pools or single peptides, respectively, p<0.05, and a stimulation index >2.
Substance,SFC/donor [SFC/donor],% responder [%]
108 (NKRPFIISRATAPGH; Immunogenic fragment) [compound 108],146,5
122 (FMWGDSMLIAPILYP; Immunogenic fragment) [compound 122],2,5
"LGTLRNGATNHFLSK (Immunogenic fragment) [Peptide 183, fragment of A0023 Der f]",163,20
130 (SIIFDGKPYYQFIYT; Immunogenic fragment) [compound 130],55,5
58 (ITRLREAMGVMQHHD; Immunogenic fragment) [compound 58],8,5
63 (EFCPYLNISSCPSTE; Immunogenic fragment) [compound 63],7,10
"LQHFNNAIKQLNTED (Immunogenic fragment) [Peptide 189, fragment of A0023 Der f]",24,10
134 (TNNMLIIQTKLSIFN; Immunogenic fragment) [compound 134],4,5
72 (KRYLLRLEHFYQSNE; Immunogenic fragment) [compound 72],4,5
124 (DINYVFFRSGSIIPI; Immunogenic fragment) [compound 124],20,10
"LTMLLDWRNLYPRKY (Immunogenic fragment) [Peptide 185, fragment of A0023 Der f]",15,5
77 (ANQPISSLKNRLHYR; Immunogenic fragment) [compound 77],4,5
"EARENYITFTEPFMI (Immunogenic fragment) [Peptide 179, fragment of A0023 Der f/p]",5,5
71 (LLRLEHFYQRFEDPS; Immunogenic fragment) [compound 71],8,5
147 (LGMQICFDMIFKTPG; Immunogenic fragment) [compound 147],28,20
59 (GTEKQHVAFNYAKML; Immunogenic fragment) [compound 59],80,5
76 (FKSFEIIAVEELTLG; Immunogenic fragment) [compound 76],8,5
74 (TVSLRHLFQSFEITA; Immunogenic fragment) [compound 74],25,5
97 (NATEYWMDMFAEYHK; Immunogenic fragment) [compound 97],227,25
56 (LKKHYADLAARPFFP; Immunogenic fragment) [compound 56],8,5
120 (AHLYTLFYHVHKNGG; Immunogenic fragment) [compound 120],8,5
81 (DDGNLISRALPHLGV; Immunogenic fragment) [compound 81],8,5
46 (FNYLPVDVQEELRNT; Immunogenic fragment) [compound 46],7,5
54 (FKLVAMKFMMASEDL; Immunogenic fragment) [compound 54],6,5
135 (IIQTKLSIFNDNDKS; Immunogenic fragment) [compound 135],3,5

Substance,SFC/donor [SFC/donor],% responder [%]
45 (IMRILCCKSRKVAPC; Immunogenic fragment) [compound 45],4,5
126 (TQNINFINILGVPKL; Immunogenic fragment) [compound 126],72,15
95 (TTYTRNRAVGIPMDV; Immunogenic fragment) [compound 95],77,15
110 (ILSDWSSMRWTIPSI; Immunogenic fragment) [compound 110],36,30
62 (RHIINESYKKLLPKS; Immunogenic fragment) [compound 62],4,5
138 (YHNLIGLPAMPPFWS; Immunogenic fragment) [compound 138],3,5
55 (KFMMASEDLLKKHYA; Immunogenic fragment) [compound 55],5,5
152 (LRGAFSESTAVYPSA; Immunogenic fragment) [compound 152],5,5
123 (YDDIDYVFVRGGSII; Immunogenic fragment) [compound 123],149,30
112 (PSILNFNLFGVPMIG; Immunogenic fragment) [compound 112],4,5
80 (NLSSKVLPNLNVPYC; Immunogenic fragment) [compound 80],4,5
149 (SSSQYQMAWAFGNNV; Immunogenic fragment) [compound 149],12,10
151 (FVYAKLRGAFSESTA; Immunogenic fragment) [compound 151],9,5
145 (PPKPELLVIDTELGR; Immunogenic fragment) [compound 145],228,30
101 (RHYNDQLHYNLHNLY; Immunogenic fragment) [compound 101],10,5
137 (HDNTELMKTKDFLLI; Immunogenic fragment) [compound 137],41,10
"DWRNLYPRKYAFALP (Immunogenic fragment) [Peptide 186, fragment of A0023 Der f]",64,5
78 (ELTLGANQPISSLKN; Immunogenic fragment) [compound 78],6,5
142 (DKKFLFNTAVLFDRQ; Immunogenic fragment) [compound 142],22,10
133 (QFIYTTNNMLIIQTK; Immunogenic fragment) [compound 133],47,5
109 (HWNGDILSDWSSMRW; Immunogenic fragment) [compound 109],88,25
146 (LLVIDTELGRLGMQI; Immunogenic fragment) [compound 146],54,20
85 (DQVLRLKFIDANQKR; Immunogenic fragment) [compound 85],222,20
99 (AEYHKTIAFDGAWLD; Immunogenic fragment) [compound 99],24,15
"GYAFIMESSSAEHEI (Immunogenic fragment) [Peptide 184, fragment of A0023 Der f]",16,10
